Assay results taken from patent US6750228B1, “Aromatic sulfone hydroxamic acid metalloprotease inhibitor” (priority 1997, dated 2004).

Tests used:
Test in all cases: biochemical
MMP-2 = target: T1, MMP-2 (Homo sapiens, UniProt P08253); details: recombinant human MMP-2, MCA peptide substrate 4 μM, pH 7.5, room temperature; read-out: MMP-2 IC50
T1 construct: made in house; provided by Dr. Gregory Goldberg, Washington University
T1 sequence (P08253 110-660): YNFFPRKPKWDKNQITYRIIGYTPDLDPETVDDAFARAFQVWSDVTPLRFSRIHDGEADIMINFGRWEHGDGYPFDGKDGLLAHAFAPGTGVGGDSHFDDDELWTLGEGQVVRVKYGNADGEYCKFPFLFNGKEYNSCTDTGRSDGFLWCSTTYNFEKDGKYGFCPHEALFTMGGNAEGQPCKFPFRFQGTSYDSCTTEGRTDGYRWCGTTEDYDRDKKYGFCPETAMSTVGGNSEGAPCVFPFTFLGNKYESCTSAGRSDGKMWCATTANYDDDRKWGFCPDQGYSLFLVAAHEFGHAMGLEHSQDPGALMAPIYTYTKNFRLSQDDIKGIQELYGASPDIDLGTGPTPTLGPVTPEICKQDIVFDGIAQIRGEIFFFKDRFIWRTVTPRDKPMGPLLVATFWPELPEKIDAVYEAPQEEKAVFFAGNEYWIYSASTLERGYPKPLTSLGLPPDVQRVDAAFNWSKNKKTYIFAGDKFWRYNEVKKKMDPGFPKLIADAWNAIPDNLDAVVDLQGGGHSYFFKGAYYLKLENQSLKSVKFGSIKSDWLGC
How it was run: (§1)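 APMA- or trypsin-activated human MMPs (MMP-1 from transfected HT-1080 cells, MMP-2 from transfected cells) preincubated with inhibitor in 1% DMSO at room temperature, then 4 μM MCA-Pro-Leu-Gly-Leu-Dpa-Ala-Arg-NH2 added in Tris/NaCl/CaCl2 buffer pH 7.5. IC50 from fluorescence reduction versus inhibitor concentration.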

MMP-13 = target: T2, MMP-13 (Homo sapiens, UniProt P45452); details: recombinant human MMP-13, MCA peptide substrate 4 μM, pH 7.5, room temperature; read-out: MMP-13 IC50
T2 construct: made in house; host or cells: baculovirus / insect cells
How it was run: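 APMA- or trypsin-activated enzymes were preincubated with inhibitor for 5 min at room temperature, then the fluorogenic substrate MCA-Pro-Leu-Gly-Leu-Dpa-Ala-Arg-NH2 was added to a final 4 μM.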

MMP-1 = target: T3, MMP-1 (Homo sapiens, UniProt P03956); details: recombinant human MMP-1, MCA peptide substrate 4 μM, pH 7.5, room temperature; read-out: MMP-1 IC50
T3 construct: made in house; host or cells: transfected HT-1080 cells (provided by Dr. Harold Welgus, Washington University)
T3 sequence (P03956 100-469): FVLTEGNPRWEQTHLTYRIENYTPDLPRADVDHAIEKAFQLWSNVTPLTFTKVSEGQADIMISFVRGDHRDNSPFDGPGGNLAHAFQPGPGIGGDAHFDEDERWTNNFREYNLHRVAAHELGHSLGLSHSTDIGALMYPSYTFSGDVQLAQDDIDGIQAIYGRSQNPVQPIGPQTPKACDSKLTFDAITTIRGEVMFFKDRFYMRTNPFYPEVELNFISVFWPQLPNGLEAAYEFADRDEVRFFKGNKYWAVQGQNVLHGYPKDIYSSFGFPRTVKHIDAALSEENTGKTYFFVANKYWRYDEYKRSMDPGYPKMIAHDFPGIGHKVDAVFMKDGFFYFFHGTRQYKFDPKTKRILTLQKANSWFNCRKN
How it was run: as §1

SMILES | IC50 (MMP-2) | IC50 (MMP-13) | IC50 (MMP-1)
CN(C)CCN(C)CCCCC(=O)N1CCC(C(=O)NO)(S(=O)(=O)c2ccc(Oc3ccc(C(F)(F)F)cc3)cc2)CC1 [Example 338] | 0.2 nM | 1.9 nM | > 10000 nM
CN1CCN(CCCCC(=O)N2CCC(C(=O)NO)(S(=O)(=O)c3ccc(Oc4ccc(C(F)(F)F)cc4)cc3)CC2)CC1 [Example 339] | 0.3 nM | 1 nM | > 10000 nM
O=C(CCCCNCc1ccncc1)N1CCC(C(=O)NO)(S(=O)(=O)c2ccc(Oc3ccc(C(F)(F)F)cc3)cc2)CC1 [Example 340] | < 0.1 nM | 0.3 nM | > 10000 nM
O=C(CCCCN1CCCC1)N1CCC(C(=O)NO)(S(=O)(=O)c2ccc(Oc3ccc(C(F)(F)F)cc3)cc2)CC1 [Example 341] | 0.2 nM | 0.6 nM | > 10000 nM
COCCN(CCCCC(=O)N1CCC(C(=O)NO)(S(=O)(=O)c2ccc(Oc3ccc(C(F)(F)F)cc3)cc2)CC1)CCOC [Example 342] | 0.3 nM | 4 nM | > 10000 nM
O=C(CCCCN1CCNCC1)N1CCC(C(=O)NO)(S(=O)(=O)c2ccc(Oc3ccc(C(F)(F)F)cc3)cc2)CC1 [Example 343] | 0.8 nM | 1.7 nM | > 10000 nM
CCN(CCCCC(=O)N1CCC(C(=O)NO)(S(=O)(=O)c2ccc(Oc3ccc(C(F)(F)F)cc3)cc2)CC1)Cc1ccncc1 [Example 344] | 0.65 nM | 2.9 nM | > 10000 nM
CCCN(CCCCC(=O)N1CCC(C(=O)NO)(S(=O)(=O)c2ccc(Oc3ccc(C(F)(F)F)cc3)cc2)CC1)CC1CC1 [Example 346] | 0.2 nM | 1.2 nM | > 10000 nM
COCCNCCCCC(=O)N1CCC(C(=O)NO)(S(=O)(=O)c2ccc(Oc3ccc(C(F)(F)F)cc3)cc2)CC1 [Example 347] | 0.7 nM | 3 nM | > 10000 nM
O=C(NO)C1(S(=O)(=O)c2ccc(Oc3ccc(OC(F)(F)F)cc3)cc2)CCN(Cc2cc(Cl)cc(Cl)c2)CC1 [Example 348] | 0.8 nM | 16.5 nM | > 10000 nM
C#CCN1CCC(C(=O)NO)(S(=O)(=O)c2ccc(Oc3ccc(OC(F)(F)F)cc3)cc2)CC1 [Example 349] | < 0.1 nM | 0.2 nM | 2600 nM
O=C(CCc1cnc[nH]1)N1CCC(C(=O)NO)(S(=O)(=O)c2ccc(Oc3ccc(OC(F)(F)F)cc3)cc2)CC1 [Example 350] | < 0.1 nM | 0.1 nM | 6000 nM
O=C(NO)C1(S(=O)(=O)c2ccc(Oc3ccc(OC(F)(F)F)cc3)cc2)CCN(c2ccccn2)CC1 [Example 352] | 0.3 nM | 1.4 nM | > 10000 nM
COc1cccc(NC(=O)N2CCC(C(=O)NO)(S(=O)(=O)c3ccc(Oc4ccc(OC(F)(F)F)cc4)cc3)CC2)c1 [Example 353] | < 0.1 nM | 0.3 nM | > 10000 nM
O=C(Nc1c(Cl)cccc1Cl)N1CCC(C(=O)NO)(S(=O)(=O)c2ccc(Oc3ccc(OC(F)(F)F)cc3)cc2)CC1 [Example 355] | < 0.1 nM | 0.4 nM | 7000 nM
COc1ccccc1NC(=O)N1CCC(C(=O)NO)(S(=O)(=O)c2ccc(Oc3ccc(OC(F)(F)F)cc3)cc2)CC1 [Example 357] | 0.1 nM | 0.3 nM | > 10000 nM
O=C(Nc1ccc(Cl)c(Cl)c1)N1CCC(C(=O)NO)(S(=O)(=O)c2ccc(Oc3ccc(OC(F)(F)F)cc3)cc2)CC1 [Example 359] | 12.2 nM | 34.9 nM | > 10000 nM
O=C(Nc1c(F)cccc1F)N1CCC(C(=O)NO)(S(=O)(=O)c2ccc(Oc3ccc(OC(F)(F)F)cc3)cc2)CC1 [Example 361] | < 0.1 nM | 0.5 nM | 5000 nM
O=C(Nc1ccc(F)cc1F)N1CCC(C(=O)NO)(S(=O)(=O)c2ccc(Oc3ccc(OC(F)(F)F)cc3)cc2)CC1 [Example 363] | 0.2 nM | 0.4 nM | 8800 nM

SMILES | IC50 (MMP-2) | IC50 (MMP-13) | IC50 (MMP-1)
O=C(Nc1ccccc1C(F)(F)F)N1CCC(C(=O)NO)(S(=O)(=O)c2ccc(Oc3ccc(OC(F)(F)F)cc3)cc2)CC1 [Example 364] | 0.2 nM | 1 nM | > 10000 nM
O=C(Nc1ccccc1Cl)N1CCC(C(=O)NO)(S(=O)(=O)c2ccc(Oc3ccc(OC(F)(F)F)cc3)cc2)CC1 [Example 365] | 0.1 nM | 0.3 nM | > 10000 nM
O=C(Nc1ccc(C(F)(F)F)cc1)N1CCC(C(=O)NO)(S(=O)(=O)c2ccc(Oc3ccc(OC(F)(F)F)cc3)cc2)CC1 [Example 366] | 2.5 nM | 13 nM | > 10000 nM
O=C(NO)C1(S(=O)(=O)c2ccc(Oc3ccc(C(F)(F)F)cc3)cc2)CCN(c2ncccc2[N+](=O)[O-])CC1 [Example 374] | 4 nM | 3.3 nM | > 10000 nM
O=C(NO)C1(S(=O)(=O)c2ccc(Oc3ccc(C(F)(F)F)cc3)cc2)CCN(c2ncccc2C(F)(F)F)CC1 [Example 375] | 15.6 nM | 16.9 nM | > 10000 nM
CC(=O)Nc1ccc(Oc2ccc(S(=O)(=O)C3(C(=O)NO)CCN(C4CC4)CC3)cc2)cc1 [Example 378] | 0.3 nM | 1.7 nM | 200 nM
O=C(c1ncc[nH]1)N1CCC(C(=O)NO)(S(=O)(=O)c2ccc(Oc3ccc(OC(F)(F)F)cc3)cc2)CC1 [Example 379] | 0.1 nM | 0.3 nM | > 10000 nM
Cc1ccc(C(=O)C2CCN(c3ccc(S(=O)(=O)C4(C(=O)NO)CCN(C5CC5)CC4)cc3)CC2)cc1C [Example 383] | 700 nM | 3 nM | > 10000 nM
Cn1ccnc1CN1CCC(C(=O)NO)(S(=O)(=O)c2ccc(Oc3ccc(OC(F)(F)F)cc3)cc2)CC1 [Example 386] | 0.2 nM | 0.4 nM | 2100 nM
O=C(NO)C1(S(=O)(=O)c2ccc(N3CCC(Sc4ccccc4)CC3)cc2)CCN(C2CC2)CC1 [Example 389] | 16.1 nM | 1.7 nM | > 10000 nM
O=C(NO)C1(S(=O)(=O)c2ccc(Oc3ccc(OC(F)(F)F)cc3)cc2)CCN(c2ccncc2)CC1 [Example 391] | < 0.1 nM | 0.1 nM | 5400 nM
O=C(NO)C1(S(=O)(=O)c2ccc(Oc3ccc(OC(F)(F)F)cc3)cc2)CCN(c2cccnc2)CC1 [Example 392] | 0.1 nM | 0.2 nM | > 10000 nM
O=C(c1ccc2ccccc2c1)C1CCN(c2ccc(S(=O)(=O)C3(C(=O)NO)CCN(C4CC4)CC3)cc2)CC1 [Example 393] | 427 nM | 4.5 nM | > 10000 nM
O=C(NO)C1(S(=O)(=O)c2ccc(Oc3ccc(C(F)(F)F)cc3)cc2)CCN(c2ccccn2)CC1 [Example 395] | 0.5 nM | 0.9 nM | > 10000 nM
O=C(NO)C1(S(=O)(=O)c2ccc(N3CCC(OCc4ccc(F)cc4)CC3)cc2)CCN(C2CC2)CC1 [Example 397] | 70 nM | 4.4 nM | > 10000 nM
COc1cccc(CO[C@@H]2CCN(c3ccc(S(=O)(=O)C4(C(=O)NO)CCN(C5CC5)CC4)cc3)C2)c1 [Example 398] | 70 nM | 7 nM | > 10000 nM
O=C(NO)C1(S(=O)(=O)c2ccc(N3CCC(OCc4cccc(C(F)(F)F)c4)CC3)cc2)CCN(C2CC2)CC1 [Example 402] | 340 nM | 15.8 nM | > 10000 nM
O=C(NO)C1(S(=O)(=O)c2ccc(N3CCC(OCc4ccc(F)c(C(F)(F)F)c4)CC3)cc2)CCN(C2CC2)CC1 [Example 408] | 800 nM | 25.1 nM | > 10000 nM
O=C(NO)C1(S(=O)(=O)c2ccc(N3CCC(S(=O)(=O)c4ccccc4)CC3)cc2)CCN(C2CC2)CC1 [Example 409] | 275 nM | 22.4 nM | > 10000 nM
